This is an account of results in ChEMBL document CHEMBL1201862, “PubChem BioAssay data set” (2004).

Among the test systems are SN12C; HOP-62; NCI/ADR-RES; MDA-MB-231; IGROV-1; PC-3; HCT-116; NCI-H460; SK-MEL-5; OVCAR-3; Hs-578T; Malme-3M; SF-295; SK-MEL-2; CCRF-CEM; HOP-92; SK-MEL-28; 786-0; M19-MEL.
What all share (experiment): NCI tumour cell line growth inhibition, 48 h

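Following 48 hours of exposure in 96-well plates, responses at five concentrations were used to interpolate endpoints linearly. At the GI50, growth is halved.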 Active and inactive are the calls of the source. Cut-off read from the data, not from the text of the source: active = GI50 up to about 1.1 µM and inactive = higher.

As for `NC1=NC(c2ccc(Cl)cc2)N(c2ccc(S(N)(=O)=O)cc2)C(N)=N1` (configuration not stated), the GI50 in the experiment with SN12C, with HOP-62, in the experiment on NCI/ADR-RES, with MDA-MB-231, with IGROV-1 and in the experiment on PC-3 was > 100 µM (inactive) in each case. The GI50 in the experiment on HCT-116, in the experiment with NCI-H460, in the experiment with SK-MEL-5, with OVCAR-3, with Hs-578T and in the experiment with Malme-3M was > 100 µM (inactive) throughout. Also, the GI50 in the experiment on SF-295, with SK-MEL-2, with CCRF-CEM, in the experiment on HOP-92, in the experiment on SK-MEL-28 and with 786-0 was > 100 µM (inactive) in each case.
As for `C(=N\c1cnc2ccccc2c1)/c1ccc2ccccc2n1`, the GI50 in the experiment with SN12C, with HOP-62, in the experiment on NCI/ADR-RES, in the experiment with MDA-MB-231, in the experiment with IGROV-1 and with PC-3 was > 100 µM (inactive) in each case. The GI50 in the experiment on HCT-116 was 35.6 µM (inactive); in the experiment with NCI-H460, > 100 µM (inactive); in the experiment on SK-MEL-5, > 100 µM (inactive); in the experiment on OVCAR-3, 27.7 µM (inactive); with Hs-578T it was > 100 µM (inactive); in the experiment on Malme-3M, > 100 µM (inactive). Besides, the GI50 in the experiment on SF-295 was > 100 µM (inactive); in the experiment on SK-MEL-2, > 100 µM (inactive); in the experiment with CCRF-CEM it was 23.8 µM (inactive); with HOP-92 it was > 100 µM (inactive); in the experiment on SK-MEL-28 it was > 100 µM (inactive); in the experiment on 786-0, > 100 µM (inactive).
Regarding `Cc1nnc2n1N=C(c1cc(F)c(Cl)cc1Cl)/C(=C/c1ccc(Cl)cc1)S2`, the GI50 was 14.9 µM (inactive) in the experiment on SN12C; 15.7 µM (inactive) with HOP-62; 11.8 µM (inactive) in the experiment on NCI/ADR-RES; 15.8 µM (inactive) with MDA-MB-231; 19.6 µM (inactive) in the experiment with IGROV-1; 20.6 µM (inactive) with PC-3. Besides, the GI50 in the experiment on HCT-116 was 7 µM (inactive); with NCI-H460, 13.9 µM (inactive); in the experiment with SK-MEL-5 it was 19.2 µM (inactive); with OVCAR-3, 12.7 µM (inactive); with Hs-578T, 43.1 µM (inactive); in the experiment with Malme-3M, 20.6 µM (inactive). Moreover, the GI50 is 13.4 µM (inactive) with SF-295; 8.15 µM (inactive) in the experiment with SK-MEL-2; 19.1 µM (inactive) in the experiment with CCRF-CEM; 19.6 µM (inactive) in the experiment on HOP-92; 38.8 µM (inactive) in the experiment with SK-MEL-28; 16.8 µM (inactive) in the experiment with 786-0.
For `O=c1[nH][nH]c(=O)n1Cc1ccccc1Cn1c(=O)[nH][nH]c1=O`, the GI50 in the experiment on SN12C, with HOP-62, with NCI/ADR-RES, with MDA-MB-231, with IGROV-1 and in the experiment with PC-3 was > 100 µM (inactive) each time. For the same compound, the GI50 with HCT-116, in the experiment with NCI-H460, in the experiment on SK-MEL-5, with OVCAR-3, in the experiment with Hs-578T and with Malme-3M was > 100 µM (inactive) throughout. Moreover, the GI50 in the experiment with SF-295, with SK-MEL-2, in the experiment with CCRF-CEM, in the experiment with HOP-92, in the experiment with SK-MEL-28 and in the experiment with 786-0 was > 100 µM (inactive) each time.
As to `CC(C)(Cl)C(Cl)CC/C(CBr)=C(\Cl)CBr` (configuration not stated), the GI50 with SN12C is 2.45 µM (inactive); in the experiment on HOP-62, 2.24 µM (inactive); with NCI/ADR-RES it was 2.77 µM (inactive); in the experiment on MDA-MB-231, 2 µM (inactive); in the experiment on IGROV-1 it was 1.66 µM (inactive); in the experiment with PC-3 it was 3.15 µM (inactive). For the same compound, the GI50 in the experiment with HCT-116 is 2.23 µM (inactive); with NCI-H460 it was 2.71 µM (inactive); with SK-MEL-5, 1.79 µM (inactive); in the experiment on OVCAR-3, 2.64 µM (inactive); with Hs-578T, 1.85 µM (inactive); with Malme-3M, 2.11 µM (inactive). For the same compound, the GI50 in the experiment on SF-295 is 6.49 µM (inactive); with SK-MEL-2, 1.67 µM (inactive); in the experiment on CCRF-CEM it was 0.15 µM (active); with HOP-92, 1.75 µM (inactive); in the experiment on SK-MEL-28, 2.03 µM (inactive); in the experiment with 786-0 it was 1.36 µM (inactive).
As for `CSc1nc(Cl)c2c(n1)Sc1nc3ccccc3n1C2O` (configuration not stated), the GI50 in the experiment with SN12C is 4.85 µM (inactive); with HOP-62 it was 13.8 µM (inactive); in the experiment on NCI/ADR-RES, 3.27 µM (inactive); in the experiment with MDA-MB-231, 4.88 µM (inactive); in the experiment on IGROV-1 it was 3.87 µM (inactive); in the experiment on PC-3 it was 4.29 µM (inactive). In addition, the GI50 in the experiment on HCT-116 is 2.48 µM (inactive); with NCI-H460, 13.4 µM (inactive); with SK-MEL-5, 2.5 µM (inactive); with OVCAR-3, 5.3 µM (inactive); in the experiment with Hs-578T it was 5.36 µM (inactive); in the experiment on Malme-3M it was 4.91 µM (inactive). Besides, the GI50 in the experiment with SF-295 is 21.3 µM (inactive); in the experiment on SK-MEL-2, 4.38 µM (inactive); in the experiment with CCRF-CEM, 1.36 µM (inactive); with HOP-92 it was 5.31 µM (inactive); in the experiment with SK-MEL-28, 6.79 µM (inactive); with 786-0 it was 2.15 µM (inactive).
Take `CCc1ccccc1NC(=O)C1=C(C)NC(C)=C(C(=O)Nc2ccccc2CC)C1c1ccccc1Cl`: the GI50 with SN12C, in the experiment with HOP-62, in the experiment on IGROV-1, in the experiment on M19-MEL, in the experiment on HCT-116 and with NCI-H460 was > 100 µM (inactive) throughout. The GI50 in the experiment on SK-MEL-5 is > 100 µM (inactive); with OVCAR-3, > 100 µM (inactive); in the experiment on Malme-3M it was > 100 µM (inactive); with SF-295, > 100 µM (inactive); in the experiment on SK-MEL-2, > 100 µM (inactive); with CCRF-CEM, 37.8 µM (inactive). Besides, the GI50 is 57.1 µM (inactive) with HOP-92, > 100 µM (inactive) with SK-MEL-28 and > 100 µM (inactive) with 786-0.
As for `CC(C)Cc1ccc(C(C)/C=C2\CCC(CN3CCOCC3)C2=O)cc1` (configuration not stated), the GI50 with SN12C was 9.27 µM (inactive); in the experiment on HOP-62, 11.7 µM (inactive); in the experiment on NCI/ADR-RES it was 3.93 µM (inactive); in the experiment on MDA-MB-231, 1.73 µM (inactive); in the experiment with IGROV-1, 7.71 µM (inactive); with PC-3 it was 12.3 µM (inactive). Besides, the GI50 in the experiment with M19-MEL was 10.2 µM (inactive); with HCT-116 it was 5.26 µM (inactive); in the experiment with NCI-H460 it was 14.8 µM (inactive); in the experiment with SK-MEL-5, 10.4 µM (inactive); in the experiment with OVCAR-3 it was 4.1 µM (inactive); with Hs-578T, 3.6 µM (inactive). Moreover, the GI50 in the experiment on Malme-3M is 13.5 µM (inactive); with SF-295, 15.3 µM (inactive); with SK-MEL-2, 16.6 µM (inactive); in the experiment on CCRF-CEM, 1.3 µM (inactive); in the experiment on HOP-92, 15.5 µM (inactive); with SK-MEL-28 it was 9.12 µM (inactive). Moreover, the GI50 in the experiment on 786-0 is 1.69 µM (inactive).
